# Test results: PMC8591201, “Anti-Tumor Activity of AZD4547 Against NTRK1 Fusion Positive Cancer Cells Through Inhibition of NTRKs” (Frontiers in Oncology, 2021)
# Legend:
# [1] = test system: T1, TRKA G595R; experiment: cells; set-up: species or system Ba/F3; CellTiter-Glo anti-proliferation of Ba/F3 cells transformed with ETV6-NTRK fusions; conditions: Mus musculus, BaF3, 72 h, read-out: LOXO195 GI50
# T1 construct: ETV6 (1-336)-NTRK1 kinase domain (434-790) fusion expressed in Ba/F3
# Description: (§1) To obtain the GI50 value of a substance, cell viability was measured using MTT (G4000, Promega, USA) for KM12(Luc) cell and Cell titer glo (G7572, Promega, USA) for other cell lines. For adherent cells, cells were seeded at 5,000 cells/well in a 96-well plate and treated with a substance one day after cell seeding. For suspension cells, 10,000 cells/well were seeded and the substance was treated after 4 h stabilization of cells. The substance was treated at 10 points of 1:3 serial dilution (0–100 µmol/L) for 72 h. For MTT assay, 15 µL dye solution was added to each well and incubated 4 h at 37°C. 100 µL of solubilization solution was added and followed 1 hr incubation. Absorbance at 570 nm of each well was recorded using EnVision microplate reader (Perkin Elmer). For Cell titer glo assay, Cell titer glo reagent was treated in each well and measured the luminescence by EnVision microplate reader (Perkin Elmer). Viable cells in each well were normalized by using 0.5% DMSO-treated wells (100%). The inhibitor dose−response curve was fitted and GI50 values were calculated using Prism 7.0 software (GraphPad). All assays were performed in duplicate and the standard deviation (SD) was determined from two independent experiments. To investigate the inhibitory activity of AZD4547 against clinically relevant TRK mutants which have resistance to the known TRK inhibitors ([8], [44]), we established Ba/F3 cell lines harboring the ETV6-NTRKs fusion genes (NTRK1, NTRK1G595R, NTRK1G667A, NTRK1G667C, NTRK1G667S and NTRK2) ( Supplementary Figure 2 ). The mutation status of each established cell line was confirmed by sequencing of its cDNA ( Supplementary Figure 2 ). The anti-proliferation activity of AZD4547 was then measured in each cell line ( Figure 2A and Table S2 ). […] However, AZD4547 has no inhibitory activity against Ba/F3 harboring clinically relevant TRKs mutants including TRKA G595R, TRKA G667S, TRKA G667C and TRKA G667A. We next evaluated if AZD4547 is capable of suppressing the phosphorylation of TRKA/B in Ba/F3 cell lines ( Figure 2B ). […] Also, phosphorylation of TRKA/B is almost completely abolished using 1 µM of AZD4547. […] (A) Summary of GI50s of AZD4547 against Ba/F3: TRKA mutants or TRKB. Cell viability after 72 h exposure to the indicated inhibitors, determined by using a cell titer glo assay in duplicate mode. Data was plotted as mean GI50 ± SD of two independent experiments. (B) AZD4547 inhibits phosphorylation of TRKA/B and PLC-gamma in Ba/F3 harboring TRKA and TRKB, respectively. […] Data are representative of three independent experiments.
# [2] = test system: T2, TRKA G667S; experiment: cells; set-up: species or system Ba/F3; CellTiter-Glo anti-proliferation of Ba/F3 cells transformed with ETV6-NTRK fusions; conditions: Mus musculus, BaF3, 72 h, read-out: LOXO195 GI50
# T2 construct: ETV6 (1-336)-NTRK1 kinase domain (434-790) fusion expressed in Ba/F3
# Description: as §1
# [3] = test system: T3, TRKA G667A; experiment: cells; set-up: species or system Ba/F3; CellTiter-Glo anti-proliferation of Ba/F3 cells transformed with ETV6-NTRK fusions; conditions: Mus musculus, BaF3, 72 h, read-out: LOXO195 GI50
# T3 construct: ETV6 (1-336)-NTRK1 kinase domain (434-790) fusion expressed in Ba/F3
# Description: as §1
# [4] = test system: T4, TRKA G667C; experiment: cells; set-up: species or system Ba/F3; CellTiter-Glo anti-proliferation of Ba/F3 cells transformed with ETV6-NTRK fusions; conditions: Mus musculus, BaF3, 72 h, read-out: LOXO195 GI50
# T4 construct: ETV6 (1-336)-NTRK1 kinase domain (434-790) fusion expressed in Ba/F3
# Description: as §1
# [5] = test system: T5, TRKA; experiment: cells; set-up: species or system Ba/F3; CellTiter-Glo anti-proliferation of Ba/F3 cells transformed with ETV6-NTRK fusions; conditions: Mus musculus, BaF3, 72 h, read-out: LOXO195 GI50
# T5 construct: ETV6 (1-336)-NTRK1 kinase domain (434-790) fusion expressed in Ba/F3
# Description: as §1
# [6] = test system: T6, TRKB; experiment: cells; set-up: species or system Ba/F3; CellTiter-Glo anti-proliferation of Ba/F3 cells transformed with ETV6-NTRK fusions; conditions: Mus musculus, BaF3, 72 h, read-out: LOXO195 GI50
# T6 construct: ETV6 (1-336)-NTRK2 kinase domain (455-822) fusion expressed in Ba/F3
# Description: as §1
# [7] = in vitro; set-up: CellTiter-Glo viability of parental Ba/F3 cells, counter-screen; conditions: mouse, parental ba/f3 cells
# Description: To obtain the GI50 value of a substance, cell viability was measured using MTT (G4000, Promega, USA) for KM12(Luc) cell and Cell titer glo (G7572, Promega, USA) for other cell lines. For adherent cells, cells were seeded at 5,000 cells/well in a 96-well plate and treated with a substance one day after cell seeding. For suspension cells, 10,000 cells/well were seeded and the substance was treated after 4 h stabilization of cells. The substance was treated at 10 points of 1:3 serial dilution (0–100 µmol/L) for 72 h. For MTT assay, 15 µL dye solution was added to each well and incubated 4 h at 37°C. 100 µL of solubilization solution was added and followed 1 hr incubation. Absorbance at 570 nm of each well was recorded using EnVision microplate reader (Perkin Elmer). For Cell titer glo assay, Cell titer glo reagent was treated in each well and measured the luminescence by EnVision microplate reader (Perkin Elmer). Viable cells in each well were normalized by using 0.5% DMSO-treated wells (100%). The inhibitor dose−response curve was fitted and GI50 values were calculated using Prism 7.0 software (GraphPad). All assays were performed in duplicate and the standard deviation (SD) was determined from two independent experiments. […] Cell viability after 72 h exposure to the indicated inhibitors, determined by using a cell titer glo assay in duplicate mode. […]
smiles,measurement,setting,value
C[C@@H]1CCc2ncc(F)cc2[C@H]2CCCN2c2ccn3ncc(c3n2)C(=O)N1 [LOXO195],GI50,[1],[…]
same,GI50,[2],35.5 ± 2.5 nM
same,GI50,[3],24.1 ± 8.3 nM
same,CC50 at 72 h,[7],> 2000 nM
